In US12139499B2, “Heteroaryl compounds for treating Huntington's disease” (PTC THERAPEUTICS, INC., priority 2018, dated 2024) one finds IC50 data, which are given here for 13 molecules.

Where only a bound is given, the exact number is not on record here.

The test system of this test is Endogenous Huntingtin Protein. Put plainly: Endogenous Huntingtin Protein Assay (ELISA-based MSD electrochemiluminescence). It is filed as cell-based. The note with it: Table 1. Here is the method:
Compounds of Formula (I) or Formula (II) were tested using the Meso Scale Discovery (MSD) Assay provided in International Application No. PCT/US2016/066042, filed on Dec. 11, 2016 and claiming priority to U.S. Provisional Application 62/265,652 filed on Dec. 10, 2015, the entire contents of which are incorporated herein by reference.
The Endogenous Huntingtin Protein assay used in Example 1 was developed using the ELISA-based MSD electrochemiluminescence assay platform.
Endogenous Huntingtin Protein Assay
Meso Scale Discovery (MSD) 96-well or 384-well plates were coated overnight at 4° C. with MW1 (expanded polyglutamine) or MAB2166 monoclonal antibody (for capture) at a concentration of 1 μg/mL in PBS (30 μL per well). Plates were then washed three times with 300 μL wash buffer (0.05% Tween-20 in PBS) and blocked (100 μL blocking buffer; 5% BSA in PBS) for 4-5 hours at room temperature with rotational shaking and then washed three times with wash buffer.
Samples (25 μL) were transferred to the antibody-coated MSD plate and incubated overnight at 4° C. After removal of the lysates, the plate was washed three times with wash buffer, and 25 μL of #5656S (Cell signaling; rabbit monoclonal) secondary antibody (diluted to 0.25 μg/mL in 0.05% Tween-20 in blocking buffer) was added to each well and incubated with shaking for 1 Hour at room temperature. Following incubation with the secondary antibody, the wells were rinsed with wash buffer after which 25 μL of goat anti-rabbit SULFO TAG secondary detection antibody (required aspect of the MSD system) (diluted to 0.25 μg/mL in 0.05% Tween-20 in blocking buffer) was added to each well and incubated with shaking for 1 hour at room temperature. After rinsing three times with wash buffer, 150 μL of read buffer T with surfactant (MSD) were added to each empty well, and the plate was imaged on a SI 6000 imager (MSD) according to manufacturers' instructions provided for 96- or 384-well plates.
Background: ELISA stands for enzyme-linked immunosorbent assay.
As usually defined, the IC50 is the concentration that gives 50% inhibition. Read a low IC50 as higher potency. On to `CN(c1nc2cnc(-c3cc(C#N)c4nn(C)cc4c3)nc2s1)C1CCNCC1` [Compound 193, 2-methyl-5-{2-[methyl(piperidin-4-yl)amino][1,3]thiazolo[5,4-d]pyrimidin-5-yl}-2H-indazole-7-carbonitrile], for which the IC50 is not above 100 nM.

With `Cc1cc(-c2ccc3nc(C4CCNCC4)sc3c2)cc2cn(C)nc12` [Compound 22, 6-(2,7-dimethyl-2H-indazol-5-yl)-2-(piperidin-4-yl)-1,3-benzothiazole], the IC50 was not above 100 nM.

The molecule `Cc1cn2nc(-c3cc(F)c4nc(C5=CCNCC5)sc4c3)cc(C)c2n1` [Compound 46, 6-[4-fluoro-2-(1,2,3,6-tetrahydropyridin-4-yl)-1,3-benzothiazol-6-yl]-2,8-dimethylimidazo[1,2-b]pyridazine] had an IC50 not above 100 nM.

`Cc1cn2cc(-c3cc4sc(N(C)[C@@H]5CC(C)(C)NC(C)(C)[C@@H]5F)nc4cn3)cc(C#N)c2n1` [Compound 325, 6-(2-{[(3R,4R)-3-fluoro-2,2,6,6-tetramethylpiperidin-4-yl](methyl)amino}[1,3]thiazolo[4,5-c]pyridin-6-yl)-2-methylimidazo[1,2-a]pyridine-8-carbonitrile] yielded an IC50 not above 100 nM.

Take `Cc1cn2nc(-c3cc(F)c4nc(N(C)C5CNC5)sc4c3)cc(C)c2n1` [Compound 248, N-(azetidin-3-yl)-6-(2,8-dimethylimidazo[1,2-b]pyridazin-6-yl)-4-fluoro-N-methyl-1,3-benzothiazol-2-amine]: the IC50 lay in the range of 100 to 500 nM.

`CC1CC(N(C)c2nc3cnc(-c4cc(F)c5nn(C)cc5c4)cc3s2)CCN1C` (stereo not shown) [Compound 378, N-(1,2-dimethylpiperidin-4-yl)-6-(7-fluoro-2-methyl-2H-indazol-5-yl)-N-methyl[1,3]thiazolo[4,5-c]pyridin-2-amine] gave an IC50 of 100 to 500 nM.

Turning to `Cn1cc2cc(-c3cc4sc(OC5CCNCC5)nc4cn3)cc(F)c2n1` [Compound 316, 6-(7-fluoro-2-methyl-2H-indazol-5-yl)-2-[(piperidin-4-yl)oxy][1,3]thiazolo[4,5-c]pyridine], the IC50 is 100 to 500 nM.

The molecule `Cc1cn2cc(-c3cc4sc(N(C)C5CC6CCCC(C5)N6)nc4cn3)ccc2n1` (stereo not shown) [Compound 260, N-(9-azabicyclo[3.3.1]non-3-yl)-N-methyl-6-(2-methylimidazo[1,2-a]pyridin-6-yl)[1,3]thiazolo[4,5-c]pyridin-2-amine] returned an IC50 not above 100 nM.

On to `Cn1cc2cc(-c3cc(F)c4nc(C5CCNCC5)sc4c3)cc(C#N)c2n1` [Compound 104, 5-[4-fluoro-2-(piperidin-4-yl)-1,3-benzothiazol-6-yl]-2-methyl-2H-indazole-7-carbonitrile], for which the IC50 was not above 100 nM.

For the molecule `CN1CC[C@H]2CN(c3nc4nnc(-c5ccc(-c6cn[nH]c6)cc5O)cc4s3)[C@H]2C1` [Compound 390, 2-{6-[(1R,6S)-3-methyl-3,8-diazabicyclo[4.2.0]octan-8-yl][1,3]thiazolo[4,5-c]pyridazin-3-yl}-5-(1H-pyrazol-4-yl)phenol], the IC50 is not above 100 nM.

`Cc1cn2cc(-c3ccc4nc(N(C)C5CC(C)(C)NC(C)(C)C5)sc4c3)cc(C)c2n1` [Compound 33, 6-(2,8-dimethylimidazo[1,2-a]pyridin-6-yl)-N-methyl-N-(2,2,6,6-tetramethylpiperidin-4-yl)-1,3-benzothiazol-2-amine] yielded an IC50 not above 100 nM.

Take `Cc1cn2cc(-c3ccc4nc(N(C)C5CC6CCCC(C5)N6)sc4n3)cc(F)c2n1` (stereo not drawn) [Compound 280, N-[(3-exo)-9-azabicyclo[3.3.1]non-3-yl]-5-(8-fluoro-2-methylimidazo[1,2-a]pyridin-6-yl)-N-methyl[1,3]thiazolo[5,4-b]pyridin-2-amine]: the IC50 is not above 100 nM.

As to `COC(=O)Cc1cc(-c2cc(F)c3nc(C4CCNCC4)sc3c2)nn2cc(C)nc12` [Compound 220, methyl {6-[4-fluoro-2-(piperidin-4-yl)-1,3-benzothiazol-6-yl]-2-methylimidazo[1,2-b]pyridazin-8-yl}acetate], the IC50 was not above 100 nM.
